Measurements taken from ChEMBL document CHEMBL1201862, “PubChem BioAssay data set” (2004).
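Results reflect a 48-hour exposure of cells in 96-well plates to compound at five concentrations. GI50 is the concentration that inhibits growth by half.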 Calls of active or inactive are those of the source. No stated cut-off is given here; in the data, active = GI50 up to about 1.1 µM and inactive = higher.

Assays:
Assay in all cases: NCI anticancer screen, dose series, 48 h
[1] = test system: DMS-114
[2] = test system: HOP-92
[3] = test system: MCF7
[4] = test system: Malme-3M
[5] = test system: NCI/ADR-RES
[6] = test system: SK-MEL-5
[7] = test system: SNB-19
[8] = test system: SNB-75
[9] = test system: SW-620
[10] = test system: BT-549
[11] = test system: DU-145
[12] = test system: Hs-578T
[13] = test system: MDA-MB-231
[14] = test system: MDA-MB-435
[15] = test system: MDA-N
[16] = test system: PC-3
[17] = test system: SR
[18] = test system: T47D
[19] = test system: M14

Row | SMILES | GI50 [1] | GI50 [2] | GI50 [3] | GI50 [4] | GI50 [5] | GI50 [6] | GI50 [7] | GI50 [8] | GI50 [9] | GI50 [10] | GI50 [11] | GI50 [12] | GI50 [13] | GI50 [14] | GI50 [15] | GI50 [16] | GI50 [17] | GI50 [18] | GI50 [19]
1 | CN(C)CCOc1cc2c(c3ccccc13)-c1ccccc1C2O (centres undefined) | 11.7 µM (inactive) | 6.56 µM (inactive) | 12.8 µM (inactive) | 18.2 µM (inactive) | 3.49 µM (inactive) | 15.5 µM (inactive) | 8.28 µM (inactive) | 10.3 µM (inactive) | 12.4 µM (inactive) |  |  |  |  |  |  |  |  |  | 
2 | CN(C)C(=O)Oc1c(Br)cc(Br)cc1C(=O)OCc1ccccc1 | 19.1 µM (inactive) | 16.8 µM (inactive) | 26.4 µM (inactive) | 24.9 µM (inactive) | 18.5 µM (inactive) | 13.1 µM (inactive) | 45.5 µM (inactive) | 32 µM (inactive) | 41.1 µM (inactive) |  |  |  |  |  |  |  |  |  | 
3 | COc1cc([C@@H]2c3cc4c(cc3[C@H](O)[C@H]3COC(=O)[C@H]23)OCO4)cc(OC)c1OC [PODOFILOX] | 0.01 µM (active) | 0.227 µM (active) | < 0.005 µM (active) | 3.01 µM (inactive) | < 0.005 µM (active) |  | < 0.005 µM (active) |  | < 0.005 µM (active) | 0.0232 µM (active) | < 0.005 µM (active) | < 0.005 µM (active) | < 0.005 µM (active) | < 0.005 µM (active) | < 0.005 µM (active) | < 0.005 µM (active) | < 0.005 µM (active) | 0.5 µM (active) | 
4 | CSC1SCC2C(=O)N(C)C(C(C)C)C(=O)OCC(NC(=O)c3cnc4ccccc4n3)C(=O)NC(C)C(=O)N(C)C1C(=O)N(C)C(C(C)C)C(=O)OCC(NC(=O)c1cnc3ccccc3n1)C(=O)NC(C)C(=O)N2C (centres undefined) | 0.0104 µM (active) |  | 0.0075 µM (active) |  | 0.0454 µM (active) | 0.0075 µM (active) | 0.0075 µM (active) |  | 0.0075 µM (active) | 0.00158 µM (active) | 0.0031 µM (active) | 0.000374 µM (active) | 0.000906 µM (active) | 0.00105 µM (active) |  | 0.000993 µM (active) | 0.000171 µM (active) | 0.000391 µM (active) | 0.000828 µM (active)
